The text below walks through data of PubChem BioAssay AID449750 (Broad Institute, 2010).

The source made the active and inactive calls. The rule behind the calls is not given here.

A short description of the assay: non-covalent RecA intein splicing inhibitors, dose response, biochemical, cell-free, fluorescence, secondary screen (AID 449750).

As usually defined, the AC50 is the concentration giving half of the maximal activity seen. For the compound `COc1ccc(OC)c(C2C(C#N)=C(N)Oc3c2c(C)nn3-c2ccc(C)cc2)c1` (configuration not stated), the AC50 was 31.1 µM.

Take `CC(C)c1nnc(NC(=O)c2nc(S(=O)(=O)Cc3ccc(F)cc3)ncc2Cl)s1`: the AC50 is > 38 µM (inactive).

For the compound `O=[N+]([O-])c1c(NCc2ccco2)ccc2nonc12`, the AC50 was > 38 µM (inactive).

In the case of `Cc1ccccc1-c1nc(CN(C)C(C)c2ccon2)c(C)o1` (configuration not stated), the AC50 is > 38 µM (inactive).

With `Cc1ccc(Sc2c(C)[nH]n(C(C)(C)C)c2=O)cc1`, the AC50 was > 38 µM (inactive).

Turning to `CCCc1nn(C)c2c1C(c1ccncc1)C(C#N)=C(N)O2` (configuration not stated), the AC50 is > 38 µM (inactive).

As for `C#CCOc1ccc(/C=C2/C(=O)N(c3cccc(C(=O)O)c3)N=C2C)cc1OC`, the AC50 was 2.79 µM.

Regarding `CC(C)(C)c1cc(NC(=O)CCl)n(-c2ccccc2)n1`, the half-maximal activity concentration (AC50) is 22.2 µM.

As for `CC(NC(=O)/C(C#N)=C/c1ccc([N+](=O)[O-])o1)c1ccccc1` (configuration not stated), the AC50 is > 38 µM (inactive).

On to `Cc1cccc(N2CC(C(=O)OCC(=O)c3ccc(OC(=O)c4cccs4)cc3)CC2=O)c1C` (configuration not stated), for which the AC50 is > 38 µM (inactive).

For the compound `CCOC(=O)CN1C(=O)N[C@@H](c2cccc(C(F)(F)F)c2)C(C(C)=O)=C1C`, the AC50 was > 38 µM (inactive).

Turning to `O=C(Oc1ccc(N2C(=O)CCC2=O)cc1)c1ccco1`, the concentration at half-maximal activity (AC50) was 0.433 µM.

On to `COc1ccc(-c2c(=O)n(OC)c3ccccc3[n+]2[O-])cc1OC`, for which the AC50 was > 38 µM (inactive).

For `CSc1nc(-c2ccccc2)nn1C(=O)c1ccc(Cl)cc1`, the AC50 is > 38 µM (inactive).

Regarding `COc1cccc(C(c2c(C)[nH]n(-c3ccccc3)c2=O)c2c(C)[nH]n(-c3ccccc3)c2=O)c1OC`, the AC50 was 2.19 µM.

`CCN(CC)C(=O)CSc1nnc2nnc3cc(Cl)ccc3n12`: the AC50 is > 38 µM (inactive).

Regarding `O=S(=O)(CCSc1ccccn1)c1nc2ccccc2s1`, the AC50 is > 38 µM (inactive).

For `N#C/C(=C/c1ccncc1)c1nc2ccccc2s1`, the AC50 is > 38 µM (inactive).

Regarding `Nc1nn2c(-c3ccccc3)cc(=O)[nH]c2c1N=Nc1ccc(O)cc1`, the AC50 was > 38 µM (inactive).

For `CNc1ccc2nc3ccccc3[n+](C)c2c1`, the AC50 is 11.3 µM.

Regarding `COc1ccccc1-c1c(C)oc2cc(OC(=O)c3ccco3)ccc2c1=O`, the AC50 was > 38 µM (inactive).

As to `COc1ccc(C(=O)Nc2ccc(O)c3ccccc23)cc1`, the AC50 is 3.85 µM.

`O=C(NC1=C(Nc2ccc(Cl)cc2)C(=O)c2ccccc2C1=O)c1ccccc1`: the AC50 was 34.4 µM.

Regarding `COC(=O)c1[nH]c(=O)c2ccccc2c1O`, the half-maximal activity concentration (AC50) was 12.1 µM.

As for `Cc1ccc(C2=NN(C(=O)CCl)C(c3cccs3)C2)o1` (configuration not stated), the AC50 is > 38 µM (inactive).

As to `Cc1cccc(Cn2nnc3c2C(=O)c2ccccc2C3=O)c1`, the AC50 was 28.7 µM.

Take `CC(=O)n1cc(N(C(=O)CCl)c2ccc(C)cc2)c2ccccc21`: the AC50 was 1.38 µM.

Consider `CCc1[nH]nc2c1C(c1ccsc1)C(C#N)=C(N)O2` (configuration not stated), for which the AC50 is > 38 µM (inactive).

On to `CCOc1cc(C(c2c(C)[nH][nH]c2=O)c2c(C)[nH][nH]c2=O)cc(Cl)c1O`, for which the AC50 was > 38 µM (inactive).

Turning to `O=C(NC(NC(=S)Nc1ccc(Cl)cc1Cl)C(Cl)(Cl)Cl)c1cccc([N+](=O)[O-])c1` (configuration not stated), the half-maximal activity concentration (AC50) was 2.62 µM.

In the case of `C/C(=N/NC(=O)Cc1cc(=O)[nH][nH]1)c1ccc([N+](=O)[O-])cc1`, the AC50 was 21.5 µM.

In the case of `O=c1cc(-c2ccccc2)[nH][nH]1`, the concentration at half-maximal activity (AC50) was 12.8 µM.

For the compound `CCCCCCCOC(=O)c1ccc(OC(=O)c2cccnc2)cc1`, the AC50 was 4.17 µM.

For `Cc1nn(-c2ccccc2)c2c1C1(C(=O)N3c4c(cccc41)C(C)CC3(C)C)C(C#N)=C(N)O2` (configuration not stated), the AC50 is 23.9 µM.

Regarding `Cc1ccc(O)c(N=CC2=C(O)c3ccccc3C2=O)c1`, the half-maximal activity concentration (AC50) is 21.5 µM.

Turning to `Cc1ccc(C(c2cc(Cl)c3cccnc3c2O)N2CCN(C)CC2)cc1` (configuration not stated), the AC50 was 19.3 µM.

For the compound `O=C1CCN(S(=O)(=O)c2ccccc2)N1`, the AC50 was > 38 µM (inactive).

As to `O=C(O)c1ccc2c3c(ncnc13)-c1ccccc1C2=O`, the AC50 is 7.47 µM.

As to `C=CCn1c(-c2cccnc2Cl)nc2ccccc21`, the AC50 is > 38 µM (inactive).

Regarding `O=C1/C(=C/c2ccc(F)cc2)SC(=S)N1CC(=O)N1CCCCC1c1cccnc1` (configuration not stated), the AC50 was 38.4 µM.

In the case of `Cc1ccsc1C=Nc1ccc(O)cc1`, the AC50 is > 38 µM (inactive).

With `Cc1cc(-c2[nH]nc3c2C(c2ccc(Cl)cc2)C(C#N)=C(N)O3)c(C)s1` (configuration not stated), the AC50 is 15.2 µM.

For `CN(C(=O)c1cccc(COc2ccc(Cl)cc2Cl)c1)c1ccccc1`, the AC50 is > 38 µM (inactive).

With `C/C(CC(=O)Nc1cc(C)ccn1)=N\NC(=O)C(=O)NC(C)C`, the AC50 was > 38 µM (inactive).

With `CC1C(=O)C(C)C(c2cc(Cl)ccc2O)NC1c1cc(Cl)ccc1O` (configuration not stated), the half-maximal activity concentration (AC50) is 5.18 µM.

With `[O-]C1=N/[N+](=C/c2ccccc2)CC1`, the AC50 is > 38 µM (inactive).

In the case of `CCOC(=O)C1=C(c2ccccc2)O/C(=C(/C#N)C(F)(F)F)S1`, the AC50 is > 38 µM (inactive).

As to `c1cncc(CNc2ncnc3sc4c(c23)CCCC4)c1`, the AC50 is > 38 µM (inactive).

On to `Oc1ccc(N=Cc2sc3ccccc3c2Cl)cc1`, for which the AC50 is > 38 µM (inactive).

In the case of `O=c1[nH]c(N2CCOCC2)cc2ccccc12`, the AC50 was > 38 µM (inactive).

Take `CC(Nc1c[nH]c(=O)[nH]c1=O)c1ccccc1` (configuration not stated): the AC50 is > 38 µM (inactive).

As for `CC(C)NC(=S)NC(c1ccccc1)(c1ccccc1)c1ccccc1`, the AC50 was 27.9 µM.

Consider `COc1ccccc1CN1CCSCC1`, for which the AC50 was > 38 µM (inactive).

Regarding `CCCCC[C@H](O)/C=C/[C@@H]1[C@@H](C/C=C\CCCC(=O)OC)[C@@H](O)C[C@H]1O`, the AC50 was 36.5 µM.

As for `O=C(CCl)N(c1ccccc1)c1c[nH]c2ccccc12`, the AC50 is 1.46 µM.

On to `CCOc1ccc(N2C(=O)/C(=C\c3ccc(O)c(OC)c3)S(=O)(=O)C2c2cccc([N+](=O)[O-])c2)cc1` (configuration not stated), for which the AC50 is > 38 µM (inactive).

With `CCOc1cc(C2C(C#N)=C(N)Oc3n[nH]c(-c4ccccc4)c32)ccc1O` (configuration not stated), the AC50 was 20.6 µM.

For `COC(=O)Cc1c(C)[nH]n(-c2cc(Cl)cc(Cl)c2)c1=O`, the AC50 is > 38 µM (inactive).

Take `Cc1[nH]c2ccccc2c1C(C#N)(C#N)C1C(=O)c2ccccc2C1=O`: the AC50 is 2.58 µM.

On to `COc1ccc(Nc2cnn(-c3nc4ccccc4s3)c(=O)c2Cl)cc1`, for which the AC50 is > 38 µM (inactive).

Regarding `CC(=O)N1CCC2(CC1)C(C#N)=C(N)Oc1n[nH]c(C)c12`, the AC50 is > 38 µM (inactive).

For `COc1cc(/C=C2/C(=O)N(c3ccc([N+](=O)[O-])cc3)N=C2N2CCOCC2)ccc1O`, the AC50 was 31.5 µM.

For `CC1=NN(c2ccc(C)cc2C)C(=O)C1C(c1cccc(O)c1)C1C(=O)N(c2ccc(C)cc2C)N=C1C` (configuration not stated), the AC50 was 3.51 µM.

Regarding `CC(=O)C12CC(C)=C(C)CC1CC1C3CCC4=CC(=O)CCC4(C)C3CCC12C` (configuration not stated), the AC50 was 4.58 µM.

As to `CCCCc1ccc(NC(=O)CSCc2cc(=O)[nH][nH]2)cc1`, the concentration at half-maximal activity (AC50) is 27.1 µM.

For the compound `CC1=C(C)/C(=N/OC(=O)c2cccc([N+](=O)[O-])c2)C=CC1=O`, the AC50 was > 38 µM (inactive).

As to `Cc1nccn1-c1c([N+](=O)[O-])c(=O)n(C)c2ccccc12`, the AC50 is > 38 µM (inactive).

Turning to `COc1cc(/C=C2/C(=O)N(c3ccccc3)N=C2C)ccc1OS(=O)(=O)c1ccccc1`, the AC50 was 3.34 µM.

With `O=C(CNC(=O)c1ccccc1)N/N=C/c1ccc([N+](=O)[O-])o1`, the AC50 is > 38 µM (inactive).

Regarding `Cn1c2c(c(=O)n(C)c1=O)[C@@]1(C(=O)Nc3ccccc31)C(C#N)=C(N)O2`, the AC50 was > 38 µM (inactive).

Regarding `CN(C)c1ccc2nsnc2c1[N+](=O)[O-]`, the AC50 is > 38 µM (inactive).

For `CN1C(=O)/C(=N\OC(=O)c2cccc3ccccc23)c2ccccc21`, the AC50 is > 38 µM (inactive).

Take `Cc1[nH][nH]c(=O)c1C(c1ccc([N+](=O)[O-])cc1)c1c(C)[nH][nH]c1=O`: the AC50 was 25.4 µM.

As for `O=C1C(Cl)=C(N2CCOCC2)C(=O)N1c1cccc(C(F)(F)F)c1`, the AC50 was > 38 µM (inactive).

In the case of `O=C(Oc1ccc(N2C(=O)C3C4CCC(C4)C3C2=O)cc1)c1ccco1` (configuration not stated), the AC50 was > 38 µM (inactive).

On to `COC(=O)c1ccc(NC2=C(Cl)C(=O)OC2OC(=O)c2ccccc2)cc1` (configuration not stated), for which the AC50 is > 38 µM (inactive).

Consider `COc1ccc(S(=O)(=O)Nc2cc(SCC(=O)O)c(O)c3ccccc23)cc1`, for which the AC50 was 2.14 µM.

With `Clc1ccc(Sc2oc(/C=N/n3cnnc3)cc2Br)cc1`, the AC50 was > 38 µM (inactive).

As to `COC(=O)Cc1[nH]nc2c1C1(CCSCC1)C(C#N)=C(N)O2`, the AC50 is > 12 µM (inactive).

On to `O=C(c1ccco1)N1CCN(c2nc(C3CC3)nc3sc4c(c23)CCCC4)CC1`, for which the AC50 is 12.7 µM.

On to `O=C(NC1CCCCC1)C(c1cccnc1)N(C(=O)CCl)c1ccc(F)cc1` (configuration not stated), for which the AC50 was 5.58 µM.

As for `Cn1[nH]c(CSc2ccc(Cl)cc2)cc1=O`, the AC50 was 13.3 µM.

For the compound `N#Cc1cc(-c2ccccc2)nc(Oc2ccccc2)n1`, the AC50 was > 38 µM (inactive).

Take `Cc1[nH]n(-c2ccccc2)c(=O)c1C(c1ccccc1[N+](=O)[O-])C(C#N)C#N` (configuration not stated): the AC50 was 9.48 µM.

With `O=C1C(Cl)=C(N2CCCCC2)C(=O)N1c1ccccc1`, the AC50 was > 12 µM (inactive).

For the compound `CC(CCc1ccccc1)NC(=O)COC(=O)c1cc(NS(=O)(=O)c2ccc(Cl)c([N+](=O)[O-])c2)ccc1O` (configuration not stated), the AC50 is 18.8 µM.

`O=C1CC(c2cccnc2)=NN1c1ccccc1`: the AC50 is > 38 µM (inactive).

Turning to `COc1ccc(-c2nnc(SC(=O)N3c4ccccc4Sc4ccccc43)o2)cc1`, the AC50 is 4.86 µM.

For `CCOC(=O)C(Nc1ccc2ccccc2c1)C(=O)OCC`, the AC50 was 38.5 µM.

With `CS(=O)(=O)c1ncc(Cl)c(C(=O)Nc2ccc(N3CCOCC3)cc2)n1`, the AC50 was > 38 µM (inactive).

On to `CC(C)c1[nH]nc2c1C(c1cccs1)C(C#N)=C(N)O2` (configuration not stated), for which the AC50 is > 38 µM (inactive).

With `CCC1=Nc2cc(C(=O)NCCN3CCCC3)ccc2Sc2ccccc21`, the AC50 was > 38 µM (inactive).
